Legend:
Test in all cases: relative viability (nuclei count vs DMSO), 5 days (fraction); higher = more cells survive
A-427 = tested on: A-427
In short: (§1)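 Lung cancer cell lines in 1536-well plates were dosed by pin tool the day after seeding, either with one drug alone or with a fixed anchor-drug dose plus five library-drug doses (not always all listed) in √10 steps. After 5 days, cells were fixed and their nuclei stained in one step (final 0.05% Triton X-100, 1% formaldehyde, 1 ug/ml Hoechst), then counted on 4× images. Relative viability is the nuclei count in treated wells divided by that in vehicle wells. Values are medians of duplicate plates.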

BEN = tested on: BEN
In short: as §1

ChaGo-K-1 = tested on: ChaGo-K-1
In short: as §1

EKVX = tested on: EKVX
In short: as §1

LK-2 = tested on: LK-2
In short: as §1

NCI-H1563 = tested on: NCI-H1563
In short: as §1

NCI-H1650 = tested on: NCI-H1650
In short: as §1

NCI-H1755 = tested on: NCI-H1755
In short: as §1

NCI-H2085 = tested on: NCI-H2085
In short: as §1

NCI-H2228 = tested on: NCI-H2228
In short: as §1

NCI-H2347 = tested on: NCI-H2347
In short: as §1

NCI-H3122 = tested on: NCI-H3122
In short: as §1

NCI-H322M = tested on: NCI-H322M
In short: as §1

NCI-H358 = tested on: NCI-H358
In short: as §1

NCI-H460 = tested on: NCI-H460
In short: as §1

NCI-H520 = tested on: NCI-H520
In short: as §1

NCI-H596 = tested on: NCI-H596
In short: as §1

NCI-H650 = tested on: NCI-H650
In short: as §1

NCI-H727 = tested on: NCI-H727
In short: as §1

NCI-H838 = tested on: NCI-H838
In short: as §1

SW 1573 = tested on: SW 1573
In short: as §1

SW 900 = tested on: SW 900
In short: as §1

COCC1(CO)C(=O)C2CCN1CC2 (centres undefined) [PRIMA-1MET] + Cc1nc(Nc2ncc(C(=O)Nc3c(C)cccc3Cl)s2)cc(N2CCN(CCO)CC2)n1 [Dasatinib] (partner 0.075 µM)
relative viability (A-427; first compound 0.2 µM): 0.547 | relative viability (A-427; first compound 0.6325 µM): 0.577 | relative viability (A-427; first compound 2 µM): 0.721 | relative viability (A-427; first compound 6.325 µM): 0.602 | relative viability (A-427; first compound 20 µM): 0.15 | relative viability (BEN; first compound 0.2 µM): 0.306 | relative viability (BEN; first compound 0.6325 µM): 0.279 | relative viability (BEN; first compound 6.325 µM): 0.271 | relative viability (BEN; first compound 20 µM): 0.339 | relative viability (ChaGo-K-1; first compound 0.2 µM): 0.626 | relative viability (ChaGo-K-1; first compound 0.6325 µM): 0.567 | relative viability (ChaGo-K-1; first compound 2 µM): 0.687 | relative viability (ChaGo-K-1; first compound 6.325 µM): 0.54 | relative viability (ChaGo-K-1; first compound 20 µM): 0.363 | relative viability (EKVX; first compound 0.2 µM): 0.469 | relative viability (EKVX; first compound 0.6325 µM): 0.482 | relative viability (EKVX; first compound 2 µM): 0.468 | relative viability (EKVX; first compound 6.325 µM): 0.518 | relative viability (EKVX; first compound 20 µM): 0.564 | relative viability (LK-2; first compound 0.2 µM): 0.275 | relative viability (LK-2; first compound 0.6325 µM): 0.223 | relative viability (LK-2; first compound 2 µM): 0.329 | relative viability (LK-2; first compound 6.325 µM): 0.164 | relative viability (LK-2; first compound 20 µM): 0.116 | relative viability (NCI-H1563; first compound 0.2 µM): 0.502 | relative viability (NCI-H1563; first compound 0.6325 µM): 0.426 | relative viability (NCI-H1563; first compound 6.325 µM): 0.548 | relative viability (NCI-H1563; first compound 20 µM): 0.422 | relative viability (NCI-H1650; first compound 0.2 µM): 0.341 | relative viability (NCI-H1650; first compound 0.6325 µM): 0.327 | relative viability (NCI-H1650; first compound 2 µM): 0.337 | relative viability (NCI-H1650; first compound 6.325 µM): 0.282 | relative viability (NCI-H1650; first compound 20 µM): 0.06 | relative viability (NCI-H1755; first compound 0.2 µM): 0.476 | relative viability (NCI-H1755; first compound 0.6325 µM): 0.471 | relative viability (NCI-H1755; first compound 2 µM): 0.397 | relative viability (NCI-H1755; first compound 6.325 µM): 0.434 | relative viability (NCI-H1755; first compound 20 µM): 0.423 | relative viability (NCI-H2085; first compound 0.2 µM): 0.248 | relative viability (NCI-H2085; first compound 0.6325 µM): 0.23 | relative viability (NCI-H2085; first compound 2 µM): 0.249 | relative viability (NCI-H2085; first compound 6.325 µM): 0.248 | relative viability (NCI-H2085; first compound 20 µM): 0.192 | relative viability (NCI-H2228; first compound 0.2 µM): 0.638 | relative viability (NCI-H2228; first compound 0.6325 µM): 0.399 | relative viability (NCI-H2228; first compound 2 µM): 0.541 | relative viability (NCI-H2228; first compound 6.325 µM): 0.392 | relative viability (NCI-H2228; first compound 20 µM): 0.0268 | relative viability (NCI-H2347; first compound 0.2 µM): 0.766 | relative viability (NCI-H2347; first compound 0.6325 µM): 0.257 | relative viability (NCI-H2347; first compound 2 µM): 0.291 | relative viability (NCI-H2347; first compound 6.325 µM): 0.3 | relative viability (NCI-H2347; first compound 20 µM): 0.37 | relative viability (NCI-H3122; first compound 0.2 µM): 0.382 | relative viability (NCI-H3122; first compound 0.6325 µM): 0.806 | relative viability (NCI-H3122; first compound 2 µM): 0.439 | relative viability (NCI-H3122; first compound 6.325 µM): 0.433 | relative viability (NCI-H3122; first compound 20 µM): 0.856 | relative viability (NCI-H322M; first compound 0.2 µM): 0.265 | relative viability (NCI-H322M; first compound 0.6325 µM): 0.258 | relative viability (NCI-H322M; first compound 6.325 µM): 0.243 | relative viability (NCI-H322M; first compound 20 µM): 0.0311 | relative viability (NCI-H358; first compound 0.2 µM): 0.186 | relative viability (NCI-H358; first compound 2 µM): 0.174 | relative viability (NCI-H358; first compound 6.325 µM): 0.178 | relative viability (NCI-H358; first compound 20 µM): 0.0822 | relative viability (NCI-H460; first compound 0.2 µM): 0.495 | relative viability (NCI-H460; first compound 0.6325 µM): 0.321 | relative viability (NCI-H460; first compound 2 µM): 0.511 | relative viability (NCI-H460; first compound 6.325 µM): 0.518 | relative viability (NCI-H460; first compound 20 µM): 0.196 | relative viability (NCI-H520; first compound 0.2 µM): 0.203 | relative viability (NCI-H520; first compound 0.6325 µM): 0.204 | relative viability (NCI-H520; first compound 2 µM): 0.258 | relative viability (NCI-H520; first compound 6.325 µM): 0.176 | relative viability (NCI-H520; first compound 20 µM): 0.13 | relative viability (NCI-H596; first compound 0.2 µM): 0.701 | relative viability (NCI-H596; first compound 0.6325 µM): 0.563 | relative viability (NCI-H596; first compound 2 µM): 0.597 | relative viability (NCI-H596; first compound 6.325 µM): 0.79 | relative viability (NCI-H596; first compound 20 µM): 0.147 | relative viability (NCI-H650; first compound 0.2 µM): 0.565 | relative viability (NCI-H650; first compound 2 µM): 0.469 | relative viability (NCI-H650; first compound 6.325 µM): 0.472 | relative viability (NCI-H650; first compound 20 µM): 0.454 | relative viability (NCI-H727; first compound 0.2 µM): 0.273 | relative viability (NCI-H727; first compound 0.6325 µM): 0.346 | relative viability (NCI-H727; first compound 2 µM): 0.351 | relative viability (NCI-H727; first compound 6.325 µM): 0.225 | relative viability (NCI-H727; first compound 20 µM): 0.166 | relative viability (NCI-H838; first compound 0.2 µM): 0.31 | relative viability (NCI-H838; first compound 0.6325 µM): 0.279 | relative viability (NCI-H838; first compound 6.325 µM): 0.279 | relative viability (NCI-H838; first compound 20 µM): 0.456 | relative viability (SW 1573; first compound 0.2 µM): 0.452 | relative viability (SW 1573; first compound 0.6325 µM): 0.411 | relative viability (SW 1573; first compound 2 µM): 0.356 | relative viability (SW 1573; first compound 6.325 µM): 0.0331 | relative viability (SW 1573; first compound 20 µM): 0.0202 | relative viability (SW 900; first compound 0.2 µM): 0.632 | relative viability (SW 900; first compound 0.6325 µM): 0.642 | relative viability (SW 900; first compound 2 µM): 0.386 | relative viability (SW 900; first compound 6.325 µM): 0.0491 | relative viability (SW 900; first compound 20 µM): 0.0965

Reference: the supplement of paper PMC10307832
